Like-named read-outs stand apart in the source and are kept apart here.

The target in test [1] is recombinant PfPP1 (Plasmodium falciparum, UniProt Q8ILV1). The experiment in a line: biochemical. The class given is biochemical.
In test [2] the test system is PP2B. The settings on record: cited from earlier work.
Test [3] concerns PP1. The settings on record: cited from earlier work.
Test [4] relates to PP2A. The settings on record: read-out: characteristic IC50; cited from earlier work.
Test [5] has as its system other phosphatases. Conditions: cited from earlier work.
The mark [6] stands for this setting: read-out: IC50 for inhibition of PfPP1.

On to `O=P(O)(O)O` [inorganic orthophosphate], for which, in test [1] (setting [6]), the half-inhibitory concentration (IC50) (commonly the point on the concentration scale where inhibition reaches its midpoint) came out at 10000 µM.

For the compound `[F-].[Na+]` [NaF], the IC50 in test [1] (read-out: IC50 for inhibition of PfPP1, recombinant PfPP1, data not shown) was determined as 2500 µM.

`C=C1[C@@H](O)[C@@H]2O[C@]3(CC[C@H](/C=C/[C@@H](C)[C@@H]4CC(C)=C[C@@]5(O[C@H](C[C@@](C)(O)C(=O)O)CC[C@H]5O)O4)O3)CC[C@H]2O[C@@H]1[C@@H](O)C[C@H](C)[C@H]1O[C@@]2(CCCCO2)CC[C@H]1C` [OA, okadaic acid]: the “sensitivity of PP2B to toxin” value in test [2] is “highly resistant”. The IC50 in test [3] (read-out: characteristic IC50) is 0.02 to 0.08 µM; in test [1], 0.1 µM; in test [4], 0.001 to 0.005 µM.

Consider `CO[C@H]([C@H](O)CC(=O)[C@@H](C)[C@@H](O)CC[C@@H](C)[C@@H]1O[C@]2(CC[C@@H](C)[C@H](CC[C@H](C)C(C)=O)O2)CC[C@@H]1C)[C@H](OC(=O)C[C@@H](O)C1=C(C)C(=O)OC1=O)C(C)C` [tautomycin], for which the “effect on PP1 versus PP2A” value in test [3] (PP1 and PP2A compared) was “nearly equally”. The IC50 in test [1] amounted to 0.0008 µM. Besides, the “inhibition of other phosphatases” value in test [5] was “fails to inhibit”.

With `O=P(O)(O)OP(=O)(O)O` [pyrophosphate], the IC50 in test [1] (setting [6]) came to 90 µM.

These data come from paper PMC111503 (Malaria Journal, 2002).
